Source: the supplement of paper PMC11424490

Legend:
NCI-H358 [1] = test: relative IC50 of cell viability (CellTiter-Glo); higher = less potent
Summary of the method: (§1)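 In 384-well plates, NCI-H2122 cells were seeded at 800 cells/well and SW837 and NCI-H358 cells at 500 cells/well, all in 60 µl. Single compounds were added by acoustic dispensing in dose series 24 h later, with incubation for 72 h for NCI-H2122 and NCI-H358 and 144 h for SW837. CellTiter-Glo luminescence was read on an EnVision reader after 15 min shaking and expressed as percent of DMSO controls. A four-parameter nonlinear fit gave the relative IC50, averaged over replicates, and the lower plateau.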

SW837 [2] = test: as above
Summary of the method: as §1

NCI-H2122 [3] = test: fitted bottom plateau of viability curve, % of DMSO control; higher = less maximal inhibition; extreme values may be limits of the assay
Summary of the method: as §1

NCI-H358 [4] = test: as above
Summary of the method: as §1

SW837 [5] = test: as above
Summary of the method: as §1

NCI-H2122 [6] = test: relative IC50 of cell viability (CellTiter-Glo); higher = less potent
Summary of the method: as §1

SMILES | relative IC50 of cell viability (NCI-H358 [1]) | relative IC50 of cell viability (SW837 [2]) | fitted bottom plateau of viability curve (NCI-H2122 [3]) | fitted bottom plateau of viability curve (NCI-H358 [4]) | fitted bottom plateau of viability curve (SW837 [5]) | relative IC50 of cell viability (NCI-H2122 [6])
Cc1nc(Nc2ncc(C(=O)Nc3c(C)cccc3Cl)s2)cc(N2CCN(CCO)CC2)n1 [Dasatinib] (top concentration tested 10000 nM) | 1360 nM | 7040 nM | 78.1% | 0% | 0% | –
COc1cccc2c1C(=O)c1c(O)c3c(c(O)c1C2=O)C[C@@](O)(C(C)=O)C[C@@H]3O[C@H]1C[C@H](N)[C@H](O)[C@H](C)O1 [Daunorubicin] (top concentration tested 1000 nM) | 27.6 nM | 111 nM | 17.2% | 1.56% | 0.5% | 120 nM
C#Cc1cccc(Nc2ncnc3cc(OCCOC)c(OCCOC)cc23)c1 [Erlotinib] (top concentration tested 10000 nM) | 1300 nM | – | 29.5% | 12.3% | 82.2% | 4260 nM
COc1cc(Nc2ncc(F)c(Nc3ccc4c(n3)N(COP(=O)(O)O)C(=O)C(C)(C)O4)n2)cc(OC)c1OC [Fostamatinib] (top concentration tested 9999.9 nM) | 2060 nM | 1680 nM | 37.4% | 0% | 47.6% | 8750 nM
C[C@H](Nc1ccc2c(c1)OCCn1cc(N3C(=O)OC[C@H]3C(F)F)nc1-2)C(N)=O [GDC-0077] (top concentration tested 10000 nM) | 712 nM | – | 48.4% | 23.1% | 68.7% | 867 nM
COc1cc2ncnc(Nc3ccc(F)c(Cl)c3)c2cc1OCCCN1CCOCC1 [Gefitinib] (top concentration tested 9999.9 nM) | 883 nM | – | 37.8% | 19.7% | 77.7% | 3100 nM
CCS(=O)(=O)Nc1ccc2c(c1)/C(=C(/Nc1ccc(CN3CCCCC3)cc1)c1ccccc1)C(=O)N2 [Hesperadin] (top concentration tested 10000 nM) | 43.7 nM | 366 nM | 5.85% | 0% | 0% | 19 nM
O=C(O)CNC(=O)c1c(O)c2ccccc2n(Cc2ccccc2)c1=O [IOX2] (top concentration tested 50000 nM) | 10800 nM | – | 52.8% | 2.49% | 52.6% | 51400 nM
NC1(c2ccc(-c3nc4ccn5c(=O)[nH]nc5c4cc3-c3ccccc3)cc2)CCC1 [MK-2206] (top concentration tested 10000 nM) | 1990 nM | – | 31.8% | 33.4% | 79.9% | 2160 nM
CC(C)n1nc(-c2ccc3oc(N)nc3c2)c2c(N)ncnc21 [MLN-0128] (top concentration tested 99.893 nM) | 27.2 nM | – | 22.6% | 17.7% | 85.3% | 25.9 nM
C=C(F)C(=O)N1CCN(c2nc(OC[C@@H]3CCCN3C)nc3c2CCN(c2cccc4cccc(Cl)c24)C3)C[C@@H]1CC#N [MRTX849 / Adagrasib] (top concentration tested 999.97 nM) | 25.2 nM | 304 nM | 7.33% | 1.24% | 0.0244% | 39.7 nM
O=C1c2c(O)ccc(O)c2C(=O)c2c(NCCNCCO)ccc(NCCNCCO)c21 [Mitoxantrone] (top concentration tested 999.98 nM) | 19.9 nM | 79.2 nM | 28.7% | 7.11% | 0% | 62.4 nM
COc1cc(N2CCC(N3CCN(C)CC3)CC2)ccc1Nc1ncc(Cl)c(Nc2ccccc2S(=O)(=O)C(C)C)n1 [NVP-TAE684] (top concentration tested 10000 nM) | 922 nM | – | 0.655% | 3.01% | 56.5% | 384 nM
C=CC(=O)Nc1cc(Nc2nccc(-c3cn(C)c4ccccc34)n2)c(OC)cc1N(C)CCN(C)C [Osimertinib] (top concentration tested 10000 nM) | 1010 nM | 2210 nM | 0.698% | 0% | 11.4% | 2560 nM
Cc1ccc(C(=O)Nc2ccc(CN3CCN(C)CC3)c(C(F)(F)F)c2)cc1C#Cc1cnc2cccnn12 [Ponatinib] (top concentration tested 10000 nM) | 2290 nM | 1250 nM | 0.652% | 0.0743% | 0% | 887 nM
C[C@@H]1OCC2(CCN(c3cnc(Sc4ccnc(N)c4Cl)c(N)n3)CC2)[C@@H]1N [TNO155] (top concentration tested 10000 nM) | 499 nM | – | 69.5% | 29.4% | 94.5% | –
Cc1nc(-c2cn3c(n2)-c2ccc(-c4cnn(C(C)(C)C(N)=O)c4)cc2OCC3)n(C(C)C)n1 [Taselisib] (top concentration tested 10000 nM) | 470 nM | – | 16.9% | 1.64% | 86% | 290 nM
COc1cc2/c(=N/c3ccc(Br)cc3F)nc[nH]c2cc1OCC1CCN(C)CC1 [Vandetanib] (top concentration tested 10000 nM) | 1340 nM | – | 49.8% | 3.22% | 82.1% | 2070 nM
CCNC(=O)C[C@@H]1N=C(c2ccc(Cl)cc2)c2cc(OC)ccc2-n2c(C)nnc21 [iBET-762] (top concentration tested 10000 nM) | 1430 nM | 839 nM | 59.6% | 53% | 37.6% | –
